Source: the NIST ThermoML archive (doi:10.1021/je8003782)
Where “and” joins values, the source holds several entries; their conditions need not be identical. Identical values can stand only once. Numbers after ± are expanded uncertainties.

Assays:
[1] = 101.3 kPa, Liquid
[2] = xn = mol fraction of the nth substance listed; conditions: 101 kPa, Liquid

| Compound | mass density ([1]; 293.15 K) | viscosity ([1]; 293.15 K) | mass density ([1]; 298.15 K) | viscosity ([1]; 298.15 K) | mass density ([1]; 303.15 K) | viscosity ([1]; 303.15 K) | mass density ([1]; 308.15 K) | viscosity ([1]; 308.15 K) | mass density ([1]; 313.15 K) | viscosity ([1]; 313.15 K) | mass density ([1]; 318.15 K) | viscosity ([1]; 318.15 K) | mass density ([1]; 323.15 K) | viscosity ([1]; 323.15 K) | mass density ([1]; 328.15 K) | viscosity ([1]; 328.15 K) | mass density ([1]; 333.15 K) | viscosity ([1]; 333.15 K) | mass density ([1]; 338.15 K) | viscosity ([1]; 338.15 K) | further results |
| --- | --- | --- | --- | --- | --- | --- | --- | --- | --- | --- | --- | --- | --- | --- | --- | --- | --- | --- | --- | --- | --- |
| CC(=O)O [acetic acid] | 1049.42 ± 0.86 kg/m3 and 1049.42 ± 1.7 kg/m3 | 1.204 ± 0.017 mPa·s and 1.204 ± 0.029 mPa·s | 1043.76 ± 0.82 kg/m3 and 1043.76 ± 1.6 kg/m3 | 1.114 ± 0.016 mPa·s and 1.114 ± 0.027 mPa·s | 1038.1 ± 0.79 kg/m3 and 1038.1 ± 1.5 kg/m3 | 1.037 ± 0.016 mPa·s and 1.037 ± 0.026 mPa·s | 1032.44 ± 0.75 kg/m3 and 1032.44 ± 1.4 kg/m3 | 0.964 ± 0.015 mPa·s and 0.964 ± 0.024 mPa·s | 1026.77 ± 0.72 kg/m3 and 1026.77 ± 1.4 kg/m3 | 0.902 ± 0.015 mPa·s and 0.902 ± 0.023 mPa·s | 1021.11 ± 0.68 kg/m3 and 1021.11 ± 1.3 kg/m3 | 0.841 ± 0.014 mPa·s and 0.841 ± 0.022 mPa·s | 1015.44 ± 0.64 kg/m3 and 1015.44 ± 1.2 kg/m3 | 0.787 ± 0.014 mPa·s and 0.787 ± 0.021 mPa·s | 1009.77 ± 0.61 kg/m3 and 1009.77 ± 1.2 kg/m3 | 0.741 ± 0.013 mPa·s and 0.741 ± 0.02 mPa·s | 1004.09 ± 0.57 kg/m3 and 1004.09 ± 1.1 kg/m3 | 0.697 ± 0.013 mPa·s and 0.697 ± 0.019 mPa·s | 998.38 ± 0.56 kg/m3 | 0.657 ± 0.013 mPa·s | – |
| CC(=O)O [acetic acid] + C1N2CN3CN1CN(C2)C3 | – | – | – | – | – | – | – | – | – | – | – | – | – | – | – | – | – | – | – | – | mass density ([2]; 293.15 K, x2 = 0): 1049.42 ± 1.7 kg/m3; viscosity ([2]; 293.15 K, x2 = 0): 1.204 ± 0.029 mPa·s; mass density ([2]; 298.15 K, x2 = 0): 1043.76 ± 1.6 kg/m3; viscosity ([2]; 298.15 K, x2 = 0): 1.114 ± 0.027 mPa·s; mass density ([2]; 303.15 K, x2 = 0): 1038.1 ± 1.5 kg/m3; viscosity ([2]; 303.15 K, x2 = 0): 1.037 ± 0.026 mPa·s; mass density ([2]; 308.15 K, x2 = 0): 1032.44 ± 1.4 kg/m3; viscosity ([2]; 308.15 K, x2 = 0): 0.964 ± 0.024 mPa·s; mass density ([2]; 313.15 K, x2 = 0): 1026.77 ± 1.4 kg/m3; viscosity ([2]; 313.15 K, x2 = 0): 0.902 ± 0.023 mPa·s; mass density ([2]; 318.15 K, x2 = 0): 1021.11 ± 1.3 kg/m3; viscosity ([2]; 318.15 K, x2 = 0): 0.841 ± 0.022 mPa·s; mass density ([2]; 323.15 K, x2 = 0): 1015.44 ± 1.2 kg/m3; viscosity ([2]; 323.15 K, x2 = 0): 0.787 ± 0.021 mPa·s; mass density ([2]; 328.15 K, x2 = 0): 1009.77 ± 1.2 kg/m3; viscosity ([2]; 328.15 K, x2 = 0): 0.741 ± 0.02 mPa·s; mass density ([2]; 333.15 K, x2 = 0): 1004.09 ± 1.1 kg/m3; viscosity ([2]; 333.15 K, x2 = 0): 0.697 ± 0.019 mPa·s |
| CC(=O)O [acetic acid] + CC(=O)OC(C)=O | – | – | – | – | – | – | – | – | – | – | – | – | – | – | – | – | – | – | – | – | mass density ([2]; 293.15 K, x1 = 1): 1049.42 ± 0.86 kg/m3; viscosity ([2]; 293.15 K, x1 = 1): 1.204 ± 0.017 mPa·s; mass density ([2]; 298.15 K, x1 = 1): 1043.76 ± 0.82 kg/m3; viscosity ([2]; 298.15 K, x1 = 1): 1.114 ± 0.016 mPa·s; mass density ([2]; 303.15 K, x1 = 1): 1038.1 ± 0.79 kg/m3; viscosity ([2]; 303.15 K, x1 = 1): 1.037 ± 0.016 mPa·s; mass density ([2]; 308.15 K, x1 = 1): 1032.44 ± 0.75 kg/m3; viscosity ([2]; 308.15 K, x1 = 1): 0.964 ± 0.015 mPa·s; mass density ([2]; 313.15 K, x1 = 1): 1026.77 ± 0.72 kg/m3; viscosity ([2]; 313.15 K, x1 = 1): 0.902 ± 0.015 mPa·s; mass density ([2]; 318.15 K, x1 = 1): 1021.11 ± 0.68 kg/m3; viscosity ([2]; 318.15 K, x1 = 1): 0.841 ± 0.014 mPa·s; mass density ([2]; 323.15 K, x1 = 1): 1015.44 ± 0.64 kg/m3; viscosity ([2]; 323.15 K, x1 = 1): 0.787 ± 0.014 mPa·s; mass density ([2]; 328.15 K, x1 = 1): 1009.77 ± 0.61 kg/m3; viscosity ([2]; 328.15 K, x1 = 1): 0.741 ± 0.013 mPa·s; mass density ([2]; 333.15 K, x1 = 1): 1004.09 ± 0.57 kg/m3; viscosity ([2]; 333.15 K, x1 = 1): 0.697 ± 0.013 mPa·s; mass density ([2]; 338.15 K, x1 = 1): 998.38 ± 0.56 kg/m3; viscosity ([2]; 338.15 K, x1 = 1): 0.657 ± 0.013 mPa·s |
| CC(=O)OC(C)=O [ethanoic anhydride] | 1080.89 ± 1.5 kg/m3 | 0.888 ± 0.016 mPa·s | 1074.8 ± 1.5 kg/m3 | 0.829 ± 0.015 mPa·s | 1068.7 ± 1.4 kg/m3 | 0.778 ± 0.015 mPa·s | 1062.61 ± 1.4 kg/m3 | 0.729 ± 0.014 mPa·s | 1056.49 ± 1.4 kg/m3 | 0.688 ± 0.014 mPa·s | 1050.38 ± 1.3 kg/m3 | 0.648 ± 0.014 mPa·s | 1044.24 ± 1.3 kg/m3 | 0.61 ± 0.013 mPa·s | 1038.07 ± 1.2 kg/m3 | 0.58 ± 0.013 mPa·s | 1031.9 ± 1.2 kg/m3 | 0.548 ± 0.013 mPa·s | 1025.7 ± 1.1 kg/m3 | 0.521 ± 0.013 mPa·s | – |
